Reference: ChEMBL document CHEMBL5335846, “Uncovering the Power of HSCCC: Separation of Diastereomeric and Regioisomeric Styrylpyrones from the Stem Bark of Goniothalamus leiocarpus” (J Nat Prod, 2024)
The source made the active and inactive calls. The rule behind the calls is not given here.

Legend:
LS-513 = test: Cytotoxicity against human LS-513 cells assessed as inhibition of cell growth incubated for 24 hrs by MTT assay; format: functional, cell-based; details: LS-513, 24 h
SW-620 = test: Cytotoxicity against human SW620 cells assessed as inhibition of cell growth incubated for 24 hrs by MTT assay; format: functional, cell-based; details: SW-620, 24 h
COLO 205 = test: Cytotoxicity against human COLO 205 cells assessed as inhibition of cell growth incubated for 24 hrs by MTT assay; format: functional, cell-based; details: COLO 205, 24 h
Staphylococcus aureus [1] = test: Synergistic antibacterial activity against Staphylococcus aureus […] assessed as streptomycin MIC; format: functional
[2] = target: T1, Quinolone resistance protein NorA (Staphylococcus aureus) (UniProt P0A0J7); test: Inhibition of NorA efflux pump in norfloxacin-resisitant Staphylococcus aureus SA1199B overexpressing NorA gene assessed as reduction in EtBr efflux inhibition at 25 uM incubated for 20 mins by fluorometric assay
T1 sequence (whole entry): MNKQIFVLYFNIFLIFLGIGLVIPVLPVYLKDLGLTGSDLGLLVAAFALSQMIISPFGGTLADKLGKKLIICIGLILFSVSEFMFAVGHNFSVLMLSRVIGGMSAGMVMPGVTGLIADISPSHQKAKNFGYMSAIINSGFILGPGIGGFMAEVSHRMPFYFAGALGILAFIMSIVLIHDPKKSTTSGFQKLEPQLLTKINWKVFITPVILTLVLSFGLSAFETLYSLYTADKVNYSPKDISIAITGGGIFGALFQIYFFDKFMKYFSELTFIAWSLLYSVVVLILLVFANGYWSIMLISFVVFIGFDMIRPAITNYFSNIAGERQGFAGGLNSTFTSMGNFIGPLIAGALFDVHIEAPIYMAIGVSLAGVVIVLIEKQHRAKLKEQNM

Staphylococcus aureus [3] = test: Antibacterial activity against Staphylococcus aureus RN4220 assessed as inhibition of microbial growth; format: functional
HepG2 = test: Cytotoxicity against human HepG2 cells assessed as inhibition of cell growth incubated for 24 hrs by MTT assay; format: functional, cell-based; details: HepG2, 24 h
Staphylococcus aureus [4] = test: Antibacterial activity against Staphylococcus aureus SA1199B assessed as inhibition of microbial growth; format: functional
Staphylococcus aureus [5] = test: Synergistic antibacterial activity against Staphylococcus aureus XU212 assessed as tetracyclin MIC; format: functional
Staphylococcus aureus [6] = test: Synergistic antibacterial activity against Staphylococcus aureus SA1199B assessed as inhibition of microbial growth in presence of norfloxacin; format: functional
Staphylococcus aureus [7] = test: Synergistic antibacterial activity against Staphylococcus aureus RN4220 assessed as fractional inhibitory concentration index in presence of streptomycin; format: functional
Staphylococcus aureus [8] = test: Synergistic antibacterial activity against Staphylococcus aureus RN4220 assessed as inhibition of microbial growth in presence of streptomycin; format: functional
[9] = Cytotoxicity against human LM3 cells assessed as inhibition of cell growth incubated for 24 hrs by MTT assay; format: functional, cell-based; details: LM3, 24 h
Staphylococcus aureus [10] = test: Synergistic antibacterial activity against Staphylococcus aureus SA1199B assessed as norfloxacin MIC; format: functional
Staphylococcus aureus [11] = test: Synergistic antibacterial activity against Staphylococcus aureus SA1199B assessed as fractional inhibitory concentration index in presence of norfloxacin; format: functional
Staphylococcus aureus [12] = test: Synergistic antibacterial activity against Staphylococcus aureus XU212 assessed as inhibition of microbial growth in presence of tetracycline; format: functional
[13] = Cytotoxicity against HEK293T cells assessed as inhibition of cell growth incubated for 24 hrs by MTT assay; format: toxicity, cell-based, HEK-293T; details: human
Staphylococcus aureus [14] = test: Additive antibacterial activity against Staphylococcus aureus XU212 assessed as fractional inhibitory concentration index in presence of tetracycline; format: functional
Staphylococcus aureus [15] = test: Antibacterial activity against Staphylococcus aureus XU212 assessed as inhibition of microbial growth; format: functional
Staphylococcus aureus [16] = test: Antibacterial activity against fluoroquinolone-resistant Staphylococcus aureus SA1199B assessed as inhibition of microbial growth; format: functional
MHCC97H = test: Cytotoxicity against human MHCC97H cells assessed as inhibition of cell growth incubated for 24 hrs by MTT assay; format: functional, cell-based
Staphylococcus aureus [17] = test: Potency index, ratio of test compound MIC to norfloxacin MIC for antibacterial activity against fluoroquinolone-resistant Staphylococcus aureus SA1199B assessed as inhibition of microbial growth; format: functional
Staphylococcus aureus [18] = test: Additive antibacterial activity against Staphylococcus aureus RN4220 assessed as fractional inhibitory concentration index in presence of streptomycin; format: functional

| SMILES | inhibition [2] | IC50 (HepG2) [µM] | MIC (Staphylococcus aureus [4]) [µg/mL] | MIC (Staphylococcus aureus [6]) [µg/mL] | IC50 [9] [µM] | MIC (Staphylococcus aureus [10]) [µg/mL] | fractional inhibitory concentration index (FICI) (Staphylococcus aureus [11]) | IC50 at 24 h [13] [µM] | IC50 (MHCC97H) [µM] | Ratio (Staphylococcus aureus [17]) | further results |
| --- | --- | --- | --- | --- | --- | --- | --- | --- | --- | --- | --- |
| O=c1[nH]cc(F)c(=O)[nH]1 [FLUOROURACIL] |  |  |  |  |  |  |  |  |  |  | IC50 (LS-513): 84 µM; IC50 (SW-620): 43 µM; IC50 (COLO 205): 32 µM |
| O=C1C=CC[C@@H]([C@@H](O)[C@@H](c2ccccc2)c2c(O)cc3c(c2O)C(=O)C[C@@H](c2ccccc2)O3)O1 | Active | 63 | > 512 | 8 | 30 | 16 | 0.14 | 90 | 63 | 8 | MIC (Staphylococcus aureus [1]): 8 µg/mL; MIC (Staphylococcus aureus [3]): 64 µg/mL; MIC (Staphylococcus aureus [5]): 128 µg/mL; fractional inhibitory concentration index (FICI) (Staphylococcus aureus [7]): 0.37; MIC (Staphylococcus aureus [8]): 8 µg/mL; MIC (Staphylococcus aureus [12]): 64 µg/mL; fractional inhibitory concentration index (FICI) (Staphylococcus aureus [14]): 0.62; MIC (Staphylococcus aureus [15]): > 512 µg/mL; MIC (Staphylococcus aureus [16]): 16 µg/mL |
| O=C1C=CC[C@H]([C@@H](O)[C@H](c2ccccc2)c2c(O)cc(O)c3c2O[C@H](c2ccccc2)CC3=O)O1 | Active | > 100 | 128 | 16 | > 100 | 32 | 0.37 | > 100 | > 100 | 4 |  |
| CN[C@@H]1[C@H](O[C@H]2[C@H](O[C@H]3[C@H](O)[C@@H](O)[C@H](N=C(N)N)[C@@H](O)[C@@H]3N=C(N)N)O[C@@H](C)[C@]2(O)C=O)O[C@@H](CO)[C@H](O)[C@H]1O [STREPTOMYCIN] |  |  |  |  |  |  |  |  |  |  | MIC (Staphylococcus aureus [3]): 32 µg/mL |
| CCn1cc(C(=O)O)c(=O)c2cc(F)c(N3CCNCC3)cc21 [NORFLOXACIN] |  |  | 128 |  |  |  |  |  |  |  |  |
| N#CC(C#N)=NNc1cccc(Cl)c1 | Active |  |  |  |  |  |  |  |  |  |  |
| O=C1C=CC[C@H]([C@@H](O)[C@H](Oc2c(O)cc3c(c2O)C(=O)C[C@@H](c2ccccc2)O3)c2ccccc2)O1 |  | > 100 | > 128 | 32 | > 100 | 16 | 0.25 | > 100 | > 100 | 8 | MIC (Staphylococcus aureus [16]): 16 µg/mL |
| O=C1C=CC[C@@H]([C@H](O)[C@@H](c2ccccc2)c2c(O)cc(O)c3c2O[C@H](c2ccccc2)CC3=O)O1 | Active | > 100 | 256 | 16 | > 100 | 32 | 0.31 | > 100 | > 100 | 4 | MIC (Staphylococcus aureus [1]): 16 µg/mL; MIC (Staphylococcus aureus [3]): 64 µg/mL; MIC (Staphylococcus aureus [5]): 64 µg/mL; MIC (Staphylococcus aureus [8]): 16 µg/mL; fractional inhibitory concentration index (FICI) (Staphylococcus aureus [18]): 0.5; IC50 (LS-513): 2.4 µM; IC50 (SW-620): 3.9 µM; IC50 (COLO 205): 12 µM; MIC (Staphylococcus aureus [12]): 64 µg/mL; fractional inhibitory concentration index (FICI) (Staphylococcus aureus [14]): 0.62; MIC (Staphylococcus aureus [15]): 512 µg/mL |
| CNC(=O)c1cc(Oc2ccc(NC(=O)Nc3ccc(Cl)c(C(F)(F)F)c3)cc2)ccn1 [SORAFENIB] |  | 14 |  |  | 9.2 |  |  |  | 15 |  |  |
| O=C1C=CC[C@H]([C@@H](O)[C@@H](c2ccccc2)c2c(O)cc(O)c3c2O[C@H](c2ccccc2)CC3=O)O1 |  | 82 | > 512 | 64 | 82 | 32 | 0.37 | > 100 | > 100 |  |  |
| CN(C)[C@@H]1C(O)=C(C(N)=O)C(=O)[C@@]2(O)C(O)=C3C(=O)c4c(O)cccc4[C@@](C)(O)[C@H]3C[C@@H]12 [TETRACYCLINE] |  |  |  |  |  |  |  |  |  |  | MIC (Staphylococcus aureus [15]): 128 µg/mL |
| O=C1C=CC[C@H]([C@@H](O)[C@H](c2ccccc2)c2c(O)cc3c(c2O)C(=O)C[C@@H](c2ccccc2)O3)O1 | Active | > 100 | > 512 | 16 | 33 | 32 | 0.28 | > 100 | > 100 | 4 | MIC (Staphylococcus aureus [1]): 8 µg/mL; MIC (Staphylococcus aureus [3]): 64 µg/mL; MIC (Staphylococcus aureus [5]): 64 µg/mL; fractional inhibitory concentration index (FICI) (Staphylococcus aureus [7]): 0.37; MIC (Staphylococcus aureus [8]): 16 µg/mL; IC50 (LS-513): 1.6 µM; IC50 (SW-620): 2.6 µM; IC50 (COLO 205): 2.8 µM; MIC (Staphylococcus aureus [12]): 64 µg/mL; fractional inhibitory concentration index (FICI) (Staphylococcus aureus [14]): 0.62; MIC (Staphylococcus aureus [15]): > 512 µg/mL |
| O=C1C=CC[C@H]([C@H](O)[C@H](c2ccccc2)c2c(O)cc3c(c2O)C(=O)C[C@@H](c2ccccc2)O3)O1 |  | > 100 |  |  | > 100 |  |  | > 100 | > 100 |  |  |
| O=C1C=CC[C@@H]([C@@H](O)[C@H](Oc2c(O)cc3c(c2O)C(=O)C[C@@H](c2ccccc2)O3)c2ccccc2)O1 |  | 66 | > 128 | 16 | 21 | 16 | 0.18 | > 100 | 41 | 8 | MIC (Staphylococcus aureus [16]): 16 µg/mL |
